Source: PMC3664642, “A Peptide against Soluble Guanylyl Cyclase α1: A New Approach to Treating Prostate Cancer” (PLoS ONE, 2013)
pKd: −log10 of the molar value. Entries after “also recorded” stand apart in the source; their conditions may differ. Where no end group is shown, it is not given here.

Experiments:
[1] = target: T1, sGCα1 (Homo sapiens, UniProt Q02108); assay: Binding affinity by immunoprecipitation with FITC-tagged peptide; design: endogenous sGCα1 was immunoprecipitated; endogenous in cells; host or cells: C81 cells (methods); details: C81 whole-cell extract (legend: LNCaP extract), room temperature, 2 hours, IP with anti-sGCα1, fluorescence 485/521 nm, nonlinear regression
T1 sequence (Q02108 1-690): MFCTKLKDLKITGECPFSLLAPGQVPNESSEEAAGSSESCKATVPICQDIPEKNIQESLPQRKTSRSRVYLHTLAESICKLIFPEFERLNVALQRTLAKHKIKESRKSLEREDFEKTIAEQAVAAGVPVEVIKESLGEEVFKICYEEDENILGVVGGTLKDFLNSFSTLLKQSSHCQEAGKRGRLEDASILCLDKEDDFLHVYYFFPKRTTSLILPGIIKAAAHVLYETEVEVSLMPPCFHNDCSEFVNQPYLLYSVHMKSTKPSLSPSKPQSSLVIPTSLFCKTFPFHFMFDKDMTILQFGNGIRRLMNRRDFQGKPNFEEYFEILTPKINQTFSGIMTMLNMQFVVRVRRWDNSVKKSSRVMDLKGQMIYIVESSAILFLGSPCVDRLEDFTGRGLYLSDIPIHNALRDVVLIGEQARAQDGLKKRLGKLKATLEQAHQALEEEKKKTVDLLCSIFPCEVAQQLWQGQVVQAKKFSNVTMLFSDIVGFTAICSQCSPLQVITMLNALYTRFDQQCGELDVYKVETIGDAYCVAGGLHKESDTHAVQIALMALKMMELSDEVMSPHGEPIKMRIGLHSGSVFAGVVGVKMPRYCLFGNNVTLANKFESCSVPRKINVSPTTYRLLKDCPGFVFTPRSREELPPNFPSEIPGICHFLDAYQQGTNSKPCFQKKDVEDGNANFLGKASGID
Protocol: For binding affinity experiments, whole-cell extract from C81 cells was incubated with different concentrations of Peptide A-8R tagged with FITC at room temperature for 2 hours. IPs were performed using antibodies against sGCα1 or rabbit IgG as control. Peptide A-8R-FITC pulldown was measured by fluorescence signal at excitation and emission wavelengths of 485 and 521 nm, respectively, using a multi-well fluorescence plate reader.
(§1) Figure 2 Peptide A-8R interacts with sGCα1 in prostate cancer cells. (A) LNCaP cells were treated with 25 µM Biotin-labeled Peptide A-8R for 2 hrs and subjected to immunocytochemistry using anti-sGCα1 or anti-Biotin antibody to measure subcellular co-localization of endogenous sGCα1 and Peptide A-8R. DAPI was used to stain nuclei. (B) LNCaP cytosolic extracts were incubated with Peptide A-8R-Biotin and subjected to purification using streptavidin-agarose. This pull-down experiment was repeated with competing excess amount of unlabeled Peptide C-8R or Peptide A-8R. In both cases Western blotting was used to measure the co-purification of sGCα1. (C) LNCaP cell extract was incubated with different concentrations of Peptide A-8R-FITC and endogenous sGCα1 was immunoprecipitated. Co-purified Peptide A-8R-FITC was quantified by measuring fluorescence signal emission. […] Cell number was measured after 0–48 hrs of incubation. […]

[2] = system: LNCaP cells; assay: Proliferation/cytotoxicity, LNCaP cells (MTT); assay type: cell-based; details: different concentrations, averages of three independent experiments
Protocol: LNCaP, C81, PC-3 and Cos cells were grown as previously described. CWR-22Rv1 cells were cultured in RMPI-1640 medium with 10% FBS and 50 µg/ml Gentamicin (Gibco). Control siRNA, sGCα1 siRNA and AKT siRNA (Dharmacon) at 50 nM final concentration was transfected into cells using Lipofectamine siMAX (Invitrogen).
For proliferation, cells were grown in medium containing 2% FBS extracted with dextran-coated charcoal (DCC). 48 hours later, ethanol or 1 nM R1881 was added to the cells followed by peptide treatment. The MTT assay (Sigma) was used as before to determine cell number. For apoptosis, 5000 cells were seeded in 96-well plates and treated with Vehicle (DMSO), Peptide A-8R (25 µM), Etoposide (50 µM) (Sigma) at different time points. The Caspase (3/7) activity was measured using Apo-ONE Homogeneous Caspase-3/7 assay kit (Promega). PARP cleavage was also used to measure apoptosis, and is described below.
(A) Four peptides were designed targeting sGCα1, with each peptide containing eight arginines at the C-terminus for membrane translocation. (B) LNCaP cells were grown in 10% serum under different concentrations of the four peptides, as shown. Cell number was measured after 0–4 days of incubation. Data points represent averages of three independent experiments plus standard deviations. Asterisks indicate statistical significance (P<0.0002) of Peptide A activity, relative to Vehicle.
as §1, with “In both cases Western blotting was used to measure the co-purification of sGCα1. (C) LNCaP cell extract was incubated with different concentrations of Peptide A-8R-FITC and endogenous sGCα1 was immunoprecipitated.” left out

[3] = system: LNCaP xenograft tumors; assay: LNCaP mouse xenograft tumor study; assay type: in vivo; details: direct intratumoral injection; three animals per treatment; P<0.0005; Fig. S8
Protocol: […] When tumor sizes reached 200 mm^3, 50 µL of Peptide A-8R (40 mg Peptide A-8R/Kg of animal) or Vehicle (DMSO) was directly injected into the tumors every other day. Injections were stopped after 5 times and tumors were measured every 3 days. Mice were euthanized after 3 weeks and tumors were excised. All procedures were approved by the University of Toledo Division of Lab Animal Recourses (DLAR). Protein extracts were prepared by boiling the tumor tissue in 3× SDS buffer, and evaluated by SDS-PAGE gel.
Mouse xenograft tumors derived from LNCaP cells were treated with Vehicle or Peptide A-8R, after which they were allowed to grow for an additional three weeks without treatment. Data points represent average tumor size of three animals for each treatment plus standard deviations. Note that there is a statistical difference (P<0.0005) in average tumor size for each day of tumor measurement. Arrow represents day of last injection of Vehicle or Peptide A-8R. (TIF) Click here for additional data file.

Ac-TFCKAFPFHIIRRRRRRRR [Peptide A-8R]
pKd [1]: 4.94
cytotoxic activity / cell number, LNCaP ([2]; 10% serum, 0–4 days, Fig. 1B, P<0.0002 Peptide A vs Vehicle): strong, dose-dependent, cytotoxic activity, killing nearly all cells by day 4; also recorded: strongly cytotoxic to prostate cancer cells
cytotoxic effect with or without 8-arginine sequence ([2]; LNCaP, MTT, Fig. S2, P<0.005): strong cytotoxic effect
anti-tumor activity, LNCaP xenograft [3]: able to stop tumor growth; also recorded: strong anti-tumor activity; also recorded: blocks the growth of LNCaP prostate tumors
